# Laboratory results taken from patent publication US7981903B2, “2-[2-{phenylamino}-1H-pyrrolo[2,3-D]pyrimidin-4-yl)amino] benzamide derivatives as IGF-1R inhibitors for the treatment of cancer” (GlaxoSmithKline LLC, priority 2007, dated 2011).
# What was measured:
# [1] = biological target: T1, human IGF1R (hIGF1R) (Homo sapiens, UniProt P08069); test: TR-FRET kinase assay of purified hIGF1R; format: biochemical; conditions: activated hIGF1R 0.5 nM, 10 μM ATP, values given as pIC50 category, read-out: IGF-1R pIC50 (converted)
# T1 construct: containing amino acid residues 957-1367 of human IGF1R; made in house; host or cells: Sf9 cells (baculovirus)
# [2] = biological target: T2, human IR (hIR) (Homo sapiens, UniProt P06213); test: TR-FRET kinase assay of purified hIR; format: biochemical; conditions: activated hIR 0.5 nM, 10 μM ATP, values given as pIC50 category
# T2 construct: containing amino acid residues 979-1382 of human IR; made in house; host or cells: Sf9 cells (baculovirus), same process as hIGF1R
# [3] = biological target: T3, NIH-3T3 cells overexpressing human IGF-1R (Homo sapiens, UniProt P08069); test: IGF-1R cellular autophosphorylation (DELFIA); format: cell-based
# T3 construct: expressed in transfected cells; host or cells: NIH-3T3 (mouse fibroblasts)
# In short: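 Receptor autophosphorylation measured by DELFIA, capturing IGF-1R or IRβ and detecting with europium anti-pTyr, reported as percent of IGF-1- or insulin-stimulated signal. Compounds (30 uM to 1.5 nM) added 2 h before ligand, then 15 min stimulation (IGF-1 30 ng/ml or insulin 3 ug/ml).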
# T1 sequence (P08069 957-1367): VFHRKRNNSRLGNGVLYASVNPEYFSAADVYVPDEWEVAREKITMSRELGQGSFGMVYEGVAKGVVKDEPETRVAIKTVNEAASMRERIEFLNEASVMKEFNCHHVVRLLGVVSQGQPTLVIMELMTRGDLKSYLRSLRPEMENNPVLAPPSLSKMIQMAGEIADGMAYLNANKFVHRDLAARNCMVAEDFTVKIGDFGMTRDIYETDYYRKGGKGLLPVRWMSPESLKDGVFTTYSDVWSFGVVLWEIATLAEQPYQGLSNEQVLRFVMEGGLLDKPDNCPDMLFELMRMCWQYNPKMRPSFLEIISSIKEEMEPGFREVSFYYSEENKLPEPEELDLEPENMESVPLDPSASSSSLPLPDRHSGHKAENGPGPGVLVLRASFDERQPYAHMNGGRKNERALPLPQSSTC
# T3 sequence (P08069 31-1367): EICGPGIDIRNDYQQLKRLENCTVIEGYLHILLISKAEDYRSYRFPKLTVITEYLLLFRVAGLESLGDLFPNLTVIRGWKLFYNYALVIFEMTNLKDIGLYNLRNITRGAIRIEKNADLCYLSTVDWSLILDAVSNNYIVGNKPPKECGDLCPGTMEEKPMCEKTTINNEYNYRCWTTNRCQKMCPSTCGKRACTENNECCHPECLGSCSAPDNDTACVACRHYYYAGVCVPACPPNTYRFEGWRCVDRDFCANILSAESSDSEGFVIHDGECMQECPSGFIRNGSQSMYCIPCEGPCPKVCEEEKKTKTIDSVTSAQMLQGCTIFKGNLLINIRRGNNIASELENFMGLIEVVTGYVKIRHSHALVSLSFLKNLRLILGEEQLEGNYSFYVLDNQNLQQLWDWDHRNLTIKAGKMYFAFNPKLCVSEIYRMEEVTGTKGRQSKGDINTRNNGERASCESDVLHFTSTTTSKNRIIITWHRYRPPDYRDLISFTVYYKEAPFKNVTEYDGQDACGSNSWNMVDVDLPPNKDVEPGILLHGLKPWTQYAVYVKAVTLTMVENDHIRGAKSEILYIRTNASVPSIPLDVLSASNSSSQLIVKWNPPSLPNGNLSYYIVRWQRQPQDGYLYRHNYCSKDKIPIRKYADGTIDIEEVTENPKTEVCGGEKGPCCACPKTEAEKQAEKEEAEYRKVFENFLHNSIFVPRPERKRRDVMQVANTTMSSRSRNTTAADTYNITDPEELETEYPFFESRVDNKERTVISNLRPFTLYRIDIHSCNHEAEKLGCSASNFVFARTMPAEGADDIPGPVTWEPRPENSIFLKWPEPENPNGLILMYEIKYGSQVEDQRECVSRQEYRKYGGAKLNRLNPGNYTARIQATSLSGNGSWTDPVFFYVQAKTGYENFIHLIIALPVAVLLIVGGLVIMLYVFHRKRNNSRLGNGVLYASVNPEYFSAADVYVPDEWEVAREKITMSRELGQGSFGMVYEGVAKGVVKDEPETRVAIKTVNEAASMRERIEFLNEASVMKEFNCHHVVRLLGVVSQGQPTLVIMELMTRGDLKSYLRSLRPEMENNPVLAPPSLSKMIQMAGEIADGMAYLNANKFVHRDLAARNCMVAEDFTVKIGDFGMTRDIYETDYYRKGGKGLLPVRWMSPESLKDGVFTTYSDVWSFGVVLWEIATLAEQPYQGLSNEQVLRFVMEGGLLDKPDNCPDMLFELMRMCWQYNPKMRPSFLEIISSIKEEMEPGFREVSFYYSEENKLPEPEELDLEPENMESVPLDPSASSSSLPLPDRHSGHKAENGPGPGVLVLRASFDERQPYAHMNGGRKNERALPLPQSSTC
# T2 sequence (P06213 979-1382): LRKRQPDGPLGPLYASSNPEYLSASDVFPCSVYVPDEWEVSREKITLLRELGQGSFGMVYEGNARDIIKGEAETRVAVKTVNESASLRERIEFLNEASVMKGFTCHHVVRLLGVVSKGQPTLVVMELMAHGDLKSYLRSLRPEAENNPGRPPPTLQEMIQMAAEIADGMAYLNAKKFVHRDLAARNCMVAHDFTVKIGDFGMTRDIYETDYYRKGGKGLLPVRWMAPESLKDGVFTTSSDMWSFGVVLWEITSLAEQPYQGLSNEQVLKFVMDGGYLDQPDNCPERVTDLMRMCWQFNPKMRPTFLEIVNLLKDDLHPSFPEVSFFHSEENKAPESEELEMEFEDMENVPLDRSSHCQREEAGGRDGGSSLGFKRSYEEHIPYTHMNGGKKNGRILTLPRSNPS
IC50 [1] [nM],IC50 [2] [nM],IC50 [3] [nM],SMILES
0.251 to 1,0.251 to 1,< 100,"CNC(=O)c1c(F)cc(F)cc1Nc1nc(Nc2cc3c(cc2OC)CCN3C(=O)CN(C)C)nc2[nH]ccc12 [Example 190, 2-[(2-{[1-(N,N-dimethylglycyl)-5-(methyloxy)-2,3-dihydro-1H-indol-6-yl]amino}-1H-pyrrolo[2,3-d]pyrimidin-4-yl)amino]-4,6-difluoro-N-methylbenzamide]"
0.251 to 1,0.251 to 1,100 to 500,"CNC(=O)c1cc2ccccc2cc1Nc1nc(Nc2cc3c(cc2OC)CCN3C(=O)CN(C)C)nc2[nH]ccc12 [Example 125, 3-[(2-{[1-(N,N-dimethylglycyl)-5-(methyloxy)-2,3-dihydro-1H-indol-6-yl]amino}-1H-pyrrolo[2,3-d]pyrimidin-4-yl)amino]-N-methyl-2-naphthalenecarboxamide]"
5.01 to 200,5.01 to 158,> 500,"COc1cc2c(cc1Nc1nc(Nc3cccc(F)c3C(N)=O)c3cc[nH]c3n1)CN(C(=O)CCN1CCN(C(C)C)CC1)CC2 [Example 229, 2-fluoro-6-[(2-{[2-{3-[4-(1-methylethyl)-1-piperazinyl]propanoyl}-6-(methyloxy)-1,2,3,4-tetrahydro-7-isoquinolinyl]amino}-1H-pyrrolo[2,3-d]pyrimidin-4-yl)amino]benzamide]"
0.251 to 1,0.251 to 1,< 100,"COc1cc2c(cc1Nc1nc(Nc3cc4ccccc4cc3C(N)=O)c3cc[nH]c3n1)N(C(=O)CN(C)C)CC2 [Example 124, 3-[(2-{[1-(N,N-dimethylglycyl)-5-(methyloxy)-2,3-dihydro-1H-indol-6-yl]amino}-1H-pyrrolo[2,3-d]pyrimidin-4-yl)amino]-2-naphthalenecarboxamide]"
0.251 to 1,0.251 to 1,100 to 500,"CCCN1CCC=C(c2ccc(Nc3nc(Nc4ccccc4C(N)=O)c4cc[nH]c4n3)c(OC)c2)C1 [Example 2, 2-[(2-{[2-(methyloxy)-4-(1-propyl-1,2,5,6-tetrahydro-3-pyridinyl)phenyl]amino}-1H-pyrrolo[2,3-d]pyrimidin-4-yl)amino]benzamide]"
0.251 to 1,0.251 to 1,< 100,"COc1cc2c(cc1Nc1nc(Nc3cc(F)cc(F)c3C(N)=O)c3cc[nH]c3n1)N(C(=O)CN(C)C)CCC2 [Example 178, 2-[(2-{[1-(N,N-dimethylglycyl)-6-(methyloxy)-1,2,3,4-tetrahydro-7-quinolinyl]amino}-1H-pyrrolo[2,3-d]pyrimidin-4-yl)amino]-4,6-difluorobenzamide]"
0.251 to 1,0.251 to 1,100 to 500,"COc1ccc(OC[C@@H](O)CN(C)C)cc1Nc1nc(Nc2cc(F)ccc2C(N)=O)c2cc[nH]c2n1 [Example 86, 2-[(2-{[5-{[(2S)-3-(dimethylamino)-2-hydroxypropyl]oxy}-2-(methyloxy)phenyl]amino}-1H-pyrrolo[2,3-d]pyrimidin-4-yl)amino]-4-fluorobenzamide]"
5.01 to 200,5.01 to 158,100 to 500,"COc1cc2c(cc1Nc1nc(Nc3cccc(F)c3C(N)=O)c3cc(C)[nH]c3n1)N(C(=O)CN(C)C)CC2 [Example 262, 2-[(2-{[1-(N,N-dimethylglycyl)-5-(methyloxy)-2,3-dihydro-1H-indol-6-yl]amino}-6-methyl-1H-pyrrolo[2,3-d]pyrimidin-4-yl)amino]-6-fluorobenzamide]"
0.251 to 1,–,< 100,"COc1cc2c(cc1Nc1nc(Nc3cccc(F)c3C(N)=O)c3cc[nH]c3n1)N(C(=O)CN(C)C)CC2 [Example 53, 2-[(2-{[1-(N,N-dimethylglycyl)-5-(methyloxy)-2,3-dihydro-1H-indol-6-yl]amino}-1H-pyrrolo[2,3-d]pyrimidin-4-yl)amino]-6-fluorobenzamide]"
5.01 to 200,5.01 to 158,> 500,"COc1cc2c(cc1Nc1nc(Nc3cccc(F)c3C(N)=O)c3cc[nH]c3n1)NCCC2 [Example 211, 2-fluoro-6-[(2-{[6-(methyloxy)-1,2,3,4-tetrahydro-7-quinolinyl]amino}-1H-pyrrolo[2,3-d]pyrimidin-4-yl)amino]benzamide]"
5.01 to 200,1.26 to 3.98,> 500,"CNC(=O)c1c(F)cccc1Nc1nc(Nc2cc3c(cc2OC)CCN(C(C)C)C3)nc2[nH]ccc12 [Example 235, 2-fluoro-N-methyl-6-[(2-{[2-(1-methylethyl)-6-(methyloxy)-1,2,3,4-tetrahydro-7-isoquinolinyl]amino}-1H-pyrrolo[2,3-d]pyrimidin-4-yl)amino]benzamide]"
0.251 to 1,0.251 to 1,< 100,"COc1cc2c(cc1Nc1nc(Nc3cccc(F)c3C(N)=O)c3cc[nH]c3n1)N(C(=O)CN1CCCCC1)CCC2 [Example 218, 2-fluoro-6-[(2-{[6-(methyloxy)-1-(1-piperidinylacetyl)-1,2,3,4-tetrahydro-7-quinolinyl]amino}-1H-pyrrolo[2,3-d]pyrimidin-4-yl)amino]benzamide]"
5.01 to 200,5.01 to 158,> 500,"CNC(=O)c1c(F)cccc1Nc1nc(Nc2cc3c(cc2OC)CCN3C(=O)C(C)(C)O)nc2[nH]ccc12 [Example 193, 2-fluoro-6-[(2-{[1-(2-hydroxy-2-methylpropanoyl)-5-(methyloxy)-2,3-dihydro-1H-indol-6-yl]amino}-1H-pyrrolo[2,3-d]pyrimidin-4-yl)amino]-N-methylbenzamide]"
0.251 to 1,1.26 to 3.98,< 100,"COc1cc(N2CCN(C(C)C)CC2)c(C)cc1Nc1nc(Nc2cc(F)cc(F)c2C(N)=O)c2cc[nH]c2n1 [Example 91, 2,4-difluoro-6-[(2-{[5-methyl-4-[4-(1-methylethyl)-1-piperazinyl]-2-(methyloxy)phenyl]amino}-1H-pyrrolo[2,3-d]pyrimidin-4-yl)amino]benzamide]"
0.251 to 1,0.251 to 1,< 100,"COc1cc(N2CCN(C(C)C)CC2)ccc1Nc1nc(Nc2ccccc2C(N)=O)c2cc[nH]c2n1 [Example 7, 2-[(2-{[4-[4-(1-methylethyl)-1-piperazinyl]-2-(methyloxy)phenyl]amino}-1H-pyrrolo[2,3-d]pyrimidin-4-yl)amino]benzamide]"
0.251 to 1,0.251 to 1,< 100,"COc1cc2c(cc1Nc1nc(Nc3cc(Cl)cc(F)c3C(N)=O)c3cc[nH]c3n1)N(C(=O)CN1CCCC1)CC2 [Example 175, 4-chloro-2-fluoro-6-[(2-{[5-(methyloxy)-1-(1-pyrrolidinylacetyl)-2,3-dihydro-1H-indol-6-yl]amino}-1H-pyrrolo[2,3-d]pyrimidin-4-yl)amino]benzamide]"
0.251 to 1,0.251 to 1,< 100,"COc1ccc(NC(=O)CN(C)C)cc1Nc1nc(Nc2cccc(F)c2C(N)=O)c2cc[nH]c2n1 [Example 244, 2-[(2-{[5-[(N,N-dimethylglycyl)amino]-2-(methyloxy)phenyl]amino}-1H-pyrrolo[2,3-d]pyrimidin-4-yl)amino]-6-fluorobenzamide]"
5.01 to 200,–,> 500,"CNC(=O)c1c(F)cccc1Nc1nc(Nc2cc3c(cc2OC)CCC(=O)N3)nc2[nH]ccc12 [Example 222, 2-fluoro-N-methyl-6-[(2-{[6-(methyloxy)-2-oxo-1,2,3,4-tetrahydro-7-quinolinyl]amino}-1H-pyrrolo[2,3-d]pyrimidin-4-yl)amino]benzamide]"
0.251 to 1,0.251 to 1,< 100,"CCCN(C)CC(=O)N1CCc2cc(OC)c(Nc3nc(Nc4cccc(F)c4C(N)=O)c4cc[nH]c4n3)cc21 [Example 168, 2-fluoro-6-[(2-{[5-(methyloxy)-1-(N-methyl-N-propylglycyl)-2,3-dihydro-1H-indol-6-yl]amino}-1H-pyrrolo[2,3-d]pyrimidin-4-yl)amino]benzamide]"
5.01 to 200,–,100 to 500,"COc1cc2c(cc1Nc1nc(Nc3cc(F)cc(F)c3C(N)=O)c3cc[nH]c3n1)NCCC2 [Example 220, 2,4-difluoro-6-[(2-{[6-(methyloxy)-1,2,3,4-tetrahydro-7-quinolinyl]amino}-1H-pyrrolo[2,3-d]pyrimidin-4-yl)amino]benzamide]"
5.01 to 200,1.26 to 3.98,100 to 500,"COc1cc2c(cc1Nc1nc(Nc3cccc(F)c3C(N)=O)c3cc[nH]c3n1)N(C(C)=O)CC2 [Example 134, 2-[(2-{[1-acetyl-5-(methyloxy)-2,3-dihydro-1H-indol-6-yl]amino}-1H-pyrrolo[2,3-d]pyrimidin-4-yl)amino]-6-fluorobenzamide]"
0.251 to 1,0.251 to 1,< 100,"COc1cc(C2CCN(C(C)C)CC2)ccc1Nc1nc(Nc2ccc(F)cc2C(N)=O)c2cc[nH]c2n1 [Example 58, 5-fluoro-2-[(2-{[4-[1-(1-methylethyl)-4-piperidinyl]-2-(methyloxy)phenyl]amino}-1H-pyrrolo[2,3-d]pyrimidin-4-yl)amino]benzamide]"
0.251 to 1,0.251 to 1,< 100,"COc1ccc(NC(=O)CN(C)C)cc1Nc1nc(Nc2ccccc2C(N)=O)c2cc[nH]c2n1 [Example 15, 2-[(2-{[5-[(N,N-dimethylglycyl)amino]-2-(methyloxy)phenyl]amino}-1H-pyrrolo[2,3-d]pyrimidin-4-yl)amino]benzamide]"
